Data taken from ChEMBL document CHEMBL1201862, “PubChem BioAssay data set” (2004).
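Assay format: 96-well plates, 48-hour exposure. GI50 is the concentration that inhibits growth by half.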 Calls of active or inactive are those of the source. Rule as the data show it: active = GI50 up to about 1.1 µM and inactive = higher.

What was measured:
Assay in all cases: NCI anticancer screen, dose series, 48 h
A498 = system: A498
PC-3 = system: PC-3
CCRF-CEM = system: CCRF-CEM
RXF 393 = system: RXF 393
SR = system: SR
UACC-257 = system: UACC-257
NCI-H460 = system: NCI-H460
IGROV-1 = system: IGROV-1
SK-MEL-5 = system: SK-MEL-5
MOLT-4 = system: MOLT-4
SK-MEL-28 = system: SK-MEL-28
HCC 2998 = system: HCC 2998
786-0 = system: 786-0
HOP-92 = system: HOP-92
RPMI-8226 = system: RPMI-8226
OVCAR-8 = system: OVCAR-8
SK-OV-3 = system: SK-OV-3
TK-10 = system: TK-10
HOP-62 = system: HOP-62
OVCAR-3 = system: OVCAR-3
KM12 = system: KM12
SN12C = system: SN12C
OVCAR-5 = system: OVCAR-5
K562 = system: K562
SNB-19 = system: SNB-19
MCF7 = system: MCF7
NCI-H522 = system: NCI-H522
HT-29 = system: HT-29
NCI-H23 = system: NCI-H23
MDA-MB-231 = system: MDA-MB-231
NCI/ADR-RES = system: NCI/ADR-RES
EKVX = system: EKVX
SF-268 = system: SF-268
Hs-578T = system: Hs-578T
MDA-MB-435 = system: MDA-MB-435
OVCAR-4 = system: OVCAR-4
CAKI-1 = system: CAKI-1
DU-145 = system: DU-145
ACHN = system: ACHN
Malme-3M = system: Malme-3M
SF-295 = system: SF-295
HCT-116 = system: HCT-116
HL-60 = system: HL-60
A549 = system: A549
SNB-75 = system: SNB-75
SW-620 = system: SW-620
NCI-H226 = system: NCI-H226
UO-31 = system: UO-31
SF-539 = system: SF-539
M14 = system: M14
MDA-N = system: MDA-N
T47D = system: T47D
COLO 205 = system: COLO 205
LOX IMVI = system: LOX IMVI
HCT-15 = system: HCT-15
UACC-62 = system: UACC-62
U-251 = system: U-251
BT-549 = system: BT-549
SK-MEL-2 = system: SK-MEL-2

## C/C(=C\CNc1ncnc2[nH]c(Cl)nc12)CO
A498
  GI50: > 100 µM (inactive)
PC-3
  GI50: > 100 µM (inactive)
CCRF-CEM
  GI50: > 100 µM (inactive)
RXF 393
  GI50: > 100 µM (inactive)
SR
  GI50: > 100 µM (inactive)
UACC-257
  GI50: > 100 µM (inactive)
NCI-H460
  GI50: > 100 µM (inactive)
IGROV-1
  GI50: > 100 µM (inactive)
SK-MEL-5
  GI50: > 100 µM (inactive)
MOLT-4
  GI50: > 100 µM (inactive)
SK-MEL-28
  GI50: > 100 µM (inactive)
HCC 2998
  GI50: > 100 µM (inactive)
786-0
  GI50: > 100 µM (inactive)
HOP-92
  GI50: > 100 µM (inactive)
RPMI-8226
  GI50: > 100 µM (inactive)
OVCAR-8
  GI50: > 100 µM (inactive)
SK-OV-3
  GI50: > 100 µM (inactive)
TK-10
  GI50: > 100 µM (inactive)
HOP-62
  GI50: > 100 µM (inactive)
OVCAR-3
  GI50: > 100 µM (inactive)
KM12
  GI50: > 100 µM (inactive)
SN12C
  GI50: > 100 µM (inactive)
OVCAR-5
  GI50: > 100 µM (inactive)
K562
  GI50: > 100 µM (inactive)
SNB-19
  GI50: > 100 µM (inactive)
MCF7
  GI50: > 100 µM (inactive)
NCI-H522
  GI50: > 100 µM (inactive)
HT-29
  GI50: > 100 µM (inactive)
NCI-H23
  GI50: > 100 µM (inactive)
MDA-MB-231
  GI50: > 100 µM (inactive)
NCI/ADR-RES
  GI50: > 100 µM (inactive)
EKVX
  GI50: > 100 µM (inactive)
SF-268
  GI50: > 100 µM (inactive)
Hs-578T
  GI50: > 100 µM (inactive)
MDA-MB-435
  GI50: > 100 µM (inactive)
OVCAR-4
  GI50: > 100 µM (inactive)
CAKI-1
  GI50: > 100 µM (inactive)
DU-145
  GI50: > 100 µM (inactive)
ACHN
  GI50: > 100 µM (inactive)
Malme-3M
  GI50: > 100 µM (inactive)
SF-295
  GI50: > 100 µM (inactive)
HCT-116
  GI50: > 100 µM (inactive)
HL-60
  GI50: > 100 µM (inactive)
A549
  GI50: > 100 µM (inactive)
SNB-75
  GI50: > 100 µM (inactive)
SW-620
  GI50: > 100 µM (inactive)
NCI-H226
  GI50: > 100 µM (inactive)
UO-31
  GI50: > 100 µM (inactive)
SF-539
  GI50: > 100 µM (inactive)
M14
  GI50: > 100 µM (inactive)
MDA-N
  GI50: > 100 µM (inactive)
T47D
  GI50: > 100 µM (inactive)
COLO 205
  GI50: > 100 µM (inactive)
LOX IMVI
  GI50: > 100 µM (inactive)

## COc1ccc(CCn2cnc3ccccc32)cc1
A498
  GI50: > 100 µM (inactive)
PC-3
  GI50: > 100 µM (inactive)
HCT-15
  GI50: > 100 µM
CCRF-CEM
  GI50: > 100 µM (inactive)
RXF 393
  GI50: > 100 µM (inactive)
SR
  GI50: > 100 µM (inactive)
UACC-257
  GI50: > 100 µM (inactive)
NCI-H460
  GI50: > 100 µM (inactive)
IGROV-1
  GI50: > 100 µM (inactive)
SK-MEL-5
  GI50: > 100 µM (inactive)
MOLT-4
  GI50: > 100 µM (inactive)
HCC 2998
  GI50: > 100 µM (inactive)
786-0
  GI50: > 100 µM (inactive)
HOP-92
  GI50: > 100 µM (inactive)
RPMI-8226
  GI50: > 100 µM (inactive)
OVCAR-8
  GI50: > 100 µM (inactive)
SK-OV-3
  GI50: > 100 µM (inactive)
TK-10
  GI50: > 100 µM (inactive)
HOP-62
  GI50: > 100 µM (inactive)
UACC-62
  GI50: > 100 µM (inactive)
OVCAR-3
  GI50: > 100 µM (inactive)
KM12
  GI50: > 100 µM (inactive)
SN12C
  GI50: > 100 µM (inactive)
OVCAR-5
  GI50: > 100 µM (inactive)
K562
  GI50: > 100 µM (inactive)
SNB-19
  GI50: > 100 µM (inactive)
MCF7
  GI50: > 100 µM (inactive)
NCI-H522
  GI50: > 100 µM (inactive)
HT-29
  GI50: > 100 µM (inactive)
NCI-H23
  GI50: > 100 µM (inactive)
MDA-MB-231
  GI50: > 100 µM (inactive)
NCI/ADR-RES
  GI50: > 100 µM (inactive)
U-251
  GI50: > 100 µM (inactive)
EKVX
  GI50: > 100 µM (inactive)
SF-268
  GI50: > 100 µM (inactive)
Hs-578T
  GI50: > 100 µM (inactive)
MDA-MB-435
  GI50: > 100 µM (inactive)
OVCAR-4
  GI50: > 100 µM (inactive)
CAKI-1
  GI50: > 100 µM (inactive)
DU-145
  GI50: > 100 µM (inactive)
ACHN
  GI50: > 100 µM (inactive)
Malme-3M
  GI50: > 100 µM (inactive)
SF-295
  GI50: > 100 µM (inactive)
BT-549
  GI50: > 100 µM (inactive)
HCT-116
  GI50: > 100 µM (inactive)
HL-60
  GI50: > 100 µM (inactive)
A549
  GI50: > 100 µM (inactive)
SNB-75
  GI50: > 100 µM (inactive)
SW-620
  GI50: > 100 µM (inactive)
NCI-H226
  GI50: > 100 µM (inactive)
UO-31
  GI50: > 100 µM (inactive)
SK-MEL-2
  GI50: > 100 µM (inactive)
SF-539
  GI50: > 100 µM (inactive)
M14
  GI50: > 100 µM (inactive)
MDA-N
  GI50: > 100 µM (inactive)
COLO 205
  GI50: > 100 µM (inactive)

## CC1(C)N=c2c(ncn2CCO)=C(C(N)=O)N1
A498
  GI50: > 100 µM (inactive)
PC-3
  GI50: > 100 µM (inactive)
HCT-15
  GI50: > 100 µM
CCRF-CEM
  GI50: > 100 µM (inactive)
RXF 393
  GI50: > 100 µM (inactive)
SR
  GI50: > 100 µM (inactive)
UACC-257
  GI50: > 100 µM (inactive)
NCI-H460
  GI50: > 100 µM (inactive)
IGROV-1
  GI50: > 100 µM (inactive)
SK-MEL-5
  GI50: > 100 µM (inactive)
SK-MEL-28
  GI50: > 100 µM (inactive)
HCC 2998
  GI50: > 100 µM (inactive)
786-0
  GI50: > 100 µM (inactive)
HOP-92
  GI50: 26.2 µM (inactive)
RPMI-8226
  GI50: > 100 µM (inactive)
OVCAR-8
  GI50: > 100 µM (inactive)
SK-OV-3
  GI50: > 100 µM (inactive)
TK-10
  GI50: > 100 µM (inactive)
HOP-62
  GI50: > 100 µM (inactive)
UACC-62
  GI50: > 100 µM (inactive)
OVCAR-3
  GI50: > 100 µM (inactive)
KM12
  GI50: > 100 µM (inactive)
SN12C
  GI50: > 100 µM (inactive)
OVCAR-5
  GI50: > 100 µM (inactive)
K562
  GI50: > 100 µM (inactive)
SNB-19
  GI50: > 100 µM (inactive)
MCF7
  GI50: > 100 µM (inactive)
NCI-H522
  GI50: > 100 µM (inactive)
HT-29
  GI50: > 100 µM (inactive)
NCI-H23
  GI50: > 100 µM (inactive)
MDA-MB-231
  GI50: > 100 µM (inactive)
NCI/ADR-RES
  GI50: > 100 µM (inactive)
U-251
  GI50: > 100 µM (inactive)
EKVX
  GI50: > 100 µM (inactive)
SF-268
  GI50: > 100 µM (inactive)
Hs-578T
  GI50: > 100 µM (inactive)
MDA-MB-435
  GI50: > 100 µM (inactive)
OVCAR-4
  GI50: > 100 µM (inactive)
CAKI-1
  GI50: > 100 µM (inactive)
DU-145
  GI50: > 100 µM (inactive)
ACHN
  GI50: > 100 µM (inactive)
Malme-3M
  GI50: > 100 µM (inactive)
SF-295
  GI50: > 100 µM (inactive)
HCT-116
  GI50: > 100 µM (inactive)
HL-60
  GI50: > 100 µM (inactive)
A549
  GI50: > 100 µM (inactive)
SW-620
  GI50: > 100 µM (inactive)
NCI-H226
  GI50: > 100 µM (inactive)
SF-539
  GI50: > 100 µM (inactive)
M14
  GI50: > 100 µM (inactive)
MDA-N
  GI50: > 100 µM (inactive)
T47D
  GI50: > 100 µM (inactive)
COLO 205
  GI50: > 100 µM (inactive)
LOX IMVI
  GI50: > 100 µM (inactive)
